Measured values from ChEMBL document CHEMBL4808172, “Structure-Activity Relationship of Heterocyclic P2Y14 Receptor Antagonists: Removal of the Zwitterionic Character with Piperidine Bioisosteres” (J Med Chem, 2021).
In brackets after ≈: the same amount, converted by molar mass. Several values for one entry are separate records, joined by “and”; a condition that tells them apart may be missing. Equal values may be shown once. Activity calls are given as the source filed them. No cut-off for these calls is given here.

What was measured:
P2Y purinoceptor 14 = molecular target: T1, P2Y purinoceptor 14 (Homo sapiens, UniProt Q15391); experiment: cell-based
T1 sequence (Q15391 whole entry): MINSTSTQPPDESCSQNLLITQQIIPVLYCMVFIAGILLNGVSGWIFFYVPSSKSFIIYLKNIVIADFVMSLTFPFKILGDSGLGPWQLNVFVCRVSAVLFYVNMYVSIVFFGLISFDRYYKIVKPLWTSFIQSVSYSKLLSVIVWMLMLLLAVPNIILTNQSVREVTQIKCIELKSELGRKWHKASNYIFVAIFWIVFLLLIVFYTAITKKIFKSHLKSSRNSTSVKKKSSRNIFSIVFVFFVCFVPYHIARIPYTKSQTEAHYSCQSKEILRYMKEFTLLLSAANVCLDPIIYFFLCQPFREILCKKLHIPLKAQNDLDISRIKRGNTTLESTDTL

Translocator protein = Translocator protein (Homo sapiens, UniProt P30536); experiment: Binding affinity to TSPO (unknown origin)
[1] = molecular target: T2, Sigma intracellular receptor 2 (Homo sapiens, UniProt Q5BJF2); experiment: Binding affinity to sigma 2 receptor (unknown origin)
Mus musculus = experiment: Antiinflammatory activity in mouse model of ovalbumin/Aspergillus-induced allergic asthma assessed as reduction in eosinophil counts in BALF at 20 umol/kg, ip administered 30 mins prior to allergen challenge and measured after 2 days post challenge; format: functional, organism-based; conditions: dose 20.0 µmol/kg, time 2.0 day
liver carboxylesterase [2] = molecular target: T3, liver carboxylesterase (Sus scrofa, UniProt Q29550); experiment: Drug metabolism in pH 7.5 HEPES buffer assessed as porcine liver esterase-mediated compound hydrolysis by measuring half life measured up to 72 hrs by HPLC analysis; format: ADME, tissue-based; conditions: pig
T3 sequence (Q29550 whole entry): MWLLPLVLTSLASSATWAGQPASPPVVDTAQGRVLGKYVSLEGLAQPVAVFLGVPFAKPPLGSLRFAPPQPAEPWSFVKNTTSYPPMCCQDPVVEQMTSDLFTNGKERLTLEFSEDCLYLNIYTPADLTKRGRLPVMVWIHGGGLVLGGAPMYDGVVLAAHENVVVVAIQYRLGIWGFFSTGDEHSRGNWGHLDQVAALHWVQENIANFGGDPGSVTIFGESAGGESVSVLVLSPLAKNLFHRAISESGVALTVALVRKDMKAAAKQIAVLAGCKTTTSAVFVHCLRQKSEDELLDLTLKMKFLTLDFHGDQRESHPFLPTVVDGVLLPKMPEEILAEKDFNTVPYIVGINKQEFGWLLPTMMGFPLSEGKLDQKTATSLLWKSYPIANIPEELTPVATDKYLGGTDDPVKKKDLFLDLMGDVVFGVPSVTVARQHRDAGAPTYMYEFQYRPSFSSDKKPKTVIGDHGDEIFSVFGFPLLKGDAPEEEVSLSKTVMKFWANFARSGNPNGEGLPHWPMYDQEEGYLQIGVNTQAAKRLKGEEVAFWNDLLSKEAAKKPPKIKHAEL

liver carboxylesterase [3] = molecular target: T3, liver carboxylesterase; experiment: Drug metabolism in pH 7.5 HEPES buffer assessed as porcine liver esterase-mediated compound hydrolysis measured up to 72 hrs by HPLC analysis; format: ADME; conditions: pig, read-out: Drug degradation
[4] = Stability of compound in aqueous medium after 24 hrs in absence of PLE by HPLC analysis; format: physicochemical; conditions: buffer
Histamine H1 receptor = Histamine H1 receptor (Homo sapiens, UniProt P35367); experiment: Binding affinity to H1 receptor (unknown origin)
[5] = Aqueous solubility of compound at pH 7.4; format: physicochemical; conditions: buffer
[6] = Aqueous solubility of compound at pH 4.0; format: physicochemical; conditions: buffer
[7] = molecular target: T4, Alpha-1B adrenergic receptor (Homo sapiens, UniProt P35368); experiment: Binding affinity to alpha1b (unknown origin)
T4 sequence (P35368 whole entry): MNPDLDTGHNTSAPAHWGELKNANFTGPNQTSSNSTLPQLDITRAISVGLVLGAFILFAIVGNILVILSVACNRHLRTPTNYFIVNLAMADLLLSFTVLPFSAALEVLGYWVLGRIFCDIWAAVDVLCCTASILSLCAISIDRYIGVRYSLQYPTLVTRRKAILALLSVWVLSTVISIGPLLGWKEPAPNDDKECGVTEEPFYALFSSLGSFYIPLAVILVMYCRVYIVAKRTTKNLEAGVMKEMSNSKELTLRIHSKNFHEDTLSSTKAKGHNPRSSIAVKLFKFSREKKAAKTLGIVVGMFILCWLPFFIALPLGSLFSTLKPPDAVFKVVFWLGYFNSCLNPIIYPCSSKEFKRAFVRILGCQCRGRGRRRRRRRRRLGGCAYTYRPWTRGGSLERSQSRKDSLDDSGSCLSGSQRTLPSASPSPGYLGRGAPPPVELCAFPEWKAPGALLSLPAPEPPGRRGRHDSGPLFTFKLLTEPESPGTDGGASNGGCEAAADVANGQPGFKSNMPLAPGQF

[8] = molecular target: T5, Alpha-2B adrenergic receptor (Homo sapiens) (UniProt P18089); experiment: Inhibition of alpha2b (unknown origin) at 10 uM relative to control
T5 sequence (whole entry): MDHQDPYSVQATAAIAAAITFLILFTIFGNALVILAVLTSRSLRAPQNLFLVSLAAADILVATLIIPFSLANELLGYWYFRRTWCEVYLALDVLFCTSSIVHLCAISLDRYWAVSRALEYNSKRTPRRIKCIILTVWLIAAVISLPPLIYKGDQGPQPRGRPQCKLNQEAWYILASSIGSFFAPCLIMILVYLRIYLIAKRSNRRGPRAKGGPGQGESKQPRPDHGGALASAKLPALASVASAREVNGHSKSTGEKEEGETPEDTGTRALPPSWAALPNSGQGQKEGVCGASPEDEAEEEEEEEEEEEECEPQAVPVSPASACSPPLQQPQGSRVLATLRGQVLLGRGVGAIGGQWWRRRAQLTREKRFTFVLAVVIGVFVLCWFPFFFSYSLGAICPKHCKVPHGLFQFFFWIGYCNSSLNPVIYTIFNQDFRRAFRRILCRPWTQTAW

D(1A) dopamine receptor = D(1A) dopamine receptor (Homo sapiens, UniProt P21728); experiment: Binding affinity to D1 receptor (unknown origin)
[9] = molecular target: Sigma non-opioid intracellular receptor 1 (Homo sapiens, UniProt Q99720); experiment: Binding affinity to sigma 1 receptor (unknown origin)
[10] = molecular target: T6, Alpha-2A adrenergic receptor (Homo sapiens, UniProt P08913); experiment: Binding affinity to alpha2a (unknown origin)
T6 sequence (P08913 whole entry): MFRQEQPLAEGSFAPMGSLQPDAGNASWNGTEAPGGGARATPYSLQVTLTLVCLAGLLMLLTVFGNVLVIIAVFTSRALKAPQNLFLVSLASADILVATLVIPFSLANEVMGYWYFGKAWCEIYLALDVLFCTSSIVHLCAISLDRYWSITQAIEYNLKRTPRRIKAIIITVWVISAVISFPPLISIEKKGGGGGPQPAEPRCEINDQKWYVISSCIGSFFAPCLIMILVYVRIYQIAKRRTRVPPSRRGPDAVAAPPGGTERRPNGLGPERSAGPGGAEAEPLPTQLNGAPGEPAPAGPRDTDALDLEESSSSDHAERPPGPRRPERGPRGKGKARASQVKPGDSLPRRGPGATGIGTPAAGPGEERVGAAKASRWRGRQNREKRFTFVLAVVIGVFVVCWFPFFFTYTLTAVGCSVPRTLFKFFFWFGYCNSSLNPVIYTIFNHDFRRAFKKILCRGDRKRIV

[11] = molecular target: T2, Sigma intracellular receptor 2; experiment: Inhibition of sigma 2 receptor (unknown origin) at 10 uM relative to control
Histamine H4 receptor = Histamine H4 receptor (Homo sapiens, UniProt Q9H3N8); experiment: Binding affinity to H4 receptor (unknown origin)
D(1B) dopamine receptor = D(1B) dopamine receptor (Homo sapiens, UniProt P21918); experiment: Binding affinity to D5 receptor (unknown origin)
[12] = molecular target: 5-hydroxytryptamine receptor 1D (Homo sapiens) (UniProt P28221); experiment: Inhibition of 5HT1D (unknown origin) at 10 uM relative to control
Chain of 5-hydroxytryptamine receptor 1D (Homo sapiens) (P28221 whole entry): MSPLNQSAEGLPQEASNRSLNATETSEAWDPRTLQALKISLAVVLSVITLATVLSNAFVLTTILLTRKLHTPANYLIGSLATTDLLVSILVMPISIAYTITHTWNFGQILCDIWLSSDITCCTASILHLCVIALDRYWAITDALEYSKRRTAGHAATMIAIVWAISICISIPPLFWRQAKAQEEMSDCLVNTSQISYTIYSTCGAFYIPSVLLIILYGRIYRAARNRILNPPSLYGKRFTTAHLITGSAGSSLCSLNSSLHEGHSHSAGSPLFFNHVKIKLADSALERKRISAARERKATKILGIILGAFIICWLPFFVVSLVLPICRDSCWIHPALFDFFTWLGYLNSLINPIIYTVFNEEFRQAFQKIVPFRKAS

T2 sequence (Q5BJF2 whole entry): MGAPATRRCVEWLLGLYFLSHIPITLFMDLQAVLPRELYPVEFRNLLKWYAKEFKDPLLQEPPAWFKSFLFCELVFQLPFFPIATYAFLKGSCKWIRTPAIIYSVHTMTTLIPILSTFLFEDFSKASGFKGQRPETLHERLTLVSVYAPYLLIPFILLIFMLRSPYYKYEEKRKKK
Chain of Translocator protein (P30536 whole entry): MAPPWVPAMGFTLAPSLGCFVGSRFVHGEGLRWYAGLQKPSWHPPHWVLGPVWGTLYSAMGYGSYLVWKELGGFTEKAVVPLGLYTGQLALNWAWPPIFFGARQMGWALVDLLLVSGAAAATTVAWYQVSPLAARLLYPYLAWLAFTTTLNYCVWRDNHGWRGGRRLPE
Chain of D(1A) dopamine receptor (P21728 whole entry): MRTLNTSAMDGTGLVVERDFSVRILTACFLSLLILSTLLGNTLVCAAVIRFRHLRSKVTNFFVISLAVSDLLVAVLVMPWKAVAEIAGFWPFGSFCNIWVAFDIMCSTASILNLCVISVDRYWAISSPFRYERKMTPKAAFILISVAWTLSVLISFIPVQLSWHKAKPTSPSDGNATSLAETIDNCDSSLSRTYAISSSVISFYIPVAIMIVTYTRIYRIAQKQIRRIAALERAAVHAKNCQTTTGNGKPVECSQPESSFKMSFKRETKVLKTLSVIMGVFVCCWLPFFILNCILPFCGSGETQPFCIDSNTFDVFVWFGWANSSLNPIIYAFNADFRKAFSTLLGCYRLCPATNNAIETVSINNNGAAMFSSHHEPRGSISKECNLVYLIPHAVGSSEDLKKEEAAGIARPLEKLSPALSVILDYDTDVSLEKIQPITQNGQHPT
Chain of Histamine H1 receptor (P35367 whole entry): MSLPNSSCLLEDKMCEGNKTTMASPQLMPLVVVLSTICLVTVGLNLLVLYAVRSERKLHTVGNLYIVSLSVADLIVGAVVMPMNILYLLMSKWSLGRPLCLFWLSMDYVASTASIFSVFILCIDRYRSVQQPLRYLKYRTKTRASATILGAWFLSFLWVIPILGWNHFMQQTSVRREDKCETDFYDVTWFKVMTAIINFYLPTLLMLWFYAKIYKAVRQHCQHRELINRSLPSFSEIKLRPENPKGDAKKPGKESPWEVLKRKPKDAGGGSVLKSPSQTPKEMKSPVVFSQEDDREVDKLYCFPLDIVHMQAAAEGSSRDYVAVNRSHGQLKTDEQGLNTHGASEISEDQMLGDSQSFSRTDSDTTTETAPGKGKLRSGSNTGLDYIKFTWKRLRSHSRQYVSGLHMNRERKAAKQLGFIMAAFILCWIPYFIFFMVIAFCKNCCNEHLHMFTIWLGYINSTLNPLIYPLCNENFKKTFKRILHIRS
Chain of D(1B) dopamine receptor (P21918 whole entry): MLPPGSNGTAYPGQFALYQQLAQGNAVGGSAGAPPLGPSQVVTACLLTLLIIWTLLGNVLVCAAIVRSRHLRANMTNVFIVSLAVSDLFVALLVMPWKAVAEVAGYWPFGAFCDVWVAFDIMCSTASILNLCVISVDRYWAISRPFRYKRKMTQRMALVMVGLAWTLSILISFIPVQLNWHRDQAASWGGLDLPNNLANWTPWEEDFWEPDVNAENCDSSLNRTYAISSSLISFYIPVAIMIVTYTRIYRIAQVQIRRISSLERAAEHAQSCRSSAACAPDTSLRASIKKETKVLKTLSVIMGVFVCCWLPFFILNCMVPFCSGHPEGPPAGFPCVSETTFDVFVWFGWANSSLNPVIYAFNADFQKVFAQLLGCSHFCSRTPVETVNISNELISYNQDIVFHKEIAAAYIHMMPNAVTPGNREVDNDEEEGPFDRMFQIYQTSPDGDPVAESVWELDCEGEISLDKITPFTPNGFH
Chain of Sigma non-opioid intracellular receptor 1 (Q99720 whole entry): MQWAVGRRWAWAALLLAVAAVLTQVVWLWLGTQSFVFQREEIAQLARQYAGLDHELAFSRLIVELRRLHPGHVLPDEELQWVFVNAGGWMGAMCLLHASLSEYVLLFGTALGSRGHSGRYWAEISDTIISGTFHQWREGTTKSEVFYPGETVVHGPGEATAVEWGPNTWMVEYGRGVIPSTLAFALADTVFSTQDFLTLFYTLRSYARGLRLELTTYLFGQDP
Chain of Histamine H4 receptor (Q9H3N8 whole entry): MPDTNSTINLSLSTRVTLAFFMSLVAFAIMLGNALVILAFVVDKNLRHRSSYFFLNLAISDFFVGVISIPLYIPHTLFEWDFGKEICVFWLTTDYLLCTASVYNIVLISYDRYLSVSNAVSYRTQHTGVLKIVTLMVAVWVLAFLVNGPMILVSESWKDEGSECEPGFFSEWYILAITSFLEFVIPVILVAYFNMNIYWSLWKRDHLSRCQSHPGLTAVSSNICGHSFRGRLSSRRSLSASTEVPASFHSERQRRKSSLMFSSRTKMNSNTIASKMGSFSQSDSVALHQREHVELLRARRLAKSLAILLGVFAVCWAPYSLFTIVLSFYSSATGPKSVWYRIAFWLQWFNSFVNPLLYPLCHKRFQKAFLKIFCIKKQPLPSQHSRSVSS

SMILES: O=C(O)c1cc(-c2ccc(Br)cc2)cc(-n2cc(-c3ccc(C(F)(F)F)cc3)nn2)c1
- IC50 (P2Y purinoceptor 14): > 10000 nM

SMILES: NC(=O)Cc1ccc(-c2cc(C(=O)O)cc(-n3cc(-c4ccc(C(F)(F)F)cc4)nn3)c2)cc1
- Ki (Translocator protein): 2810 nM
- Ki [1]: 931 nM

SMILES: CN(C)C(=O)COC(=O)c1cc(-c2ccc(-c3cc(CO)on3)cc2)c2ccc(-c3ccc(C(F)(F)F)cc3)cc2c1
- Activity (Mus musculus): Active
- half-life (liver carboxylesterase [2]): > 72 h
- metabolised at 72 h (liver carboxylesterase [3]): 32.6%
- Stabilty [4]: Stable

SMILES: O=C(O)c1cc(-c2ccc(-c3cc(CO)on3)cc2)cc(-n2cc(-c3ccc(C(F)(F)F)cc3)nn2)c1
- Ki (Histamine H1 receptor): 2650 nM
- solubility [5]: 3.72 ug ml-1 and 7.34 uM
- Ki (Translocator protein): 751 nM
- solubility [6]: 0.6 µg/mL (≈ 1.18 µM)

SMILES: CC(=O)N1CCC(c2ccc(-c3cc(C(=O)OCC(=O)N(C)C)cc4cc(-c5ccc(C(F)(F)F)cc5)ccc34)cc2)CC1
- Activity (Mus musculus): Active
- half-life (liver carboxylesterase [2]): > 72 h
- metabolised at 72 h (liver carboxylesterase [3]): 27.2%
- Ki [1]: 590 nM
- Stabilty [4]: Stable

SMILES: O=CN1CCC(c2ccc(-c3cc(C(=O)O)cc4cc(-c5ccc(C(F)(F)F)cc5)ccc34)cc2)CC1
- Ki [7]: 2650 nM
- inhibition [8]: 82%
- Ki (D(1A) dopamine receptor): 520 nM
- Ki [9]: 759 nM
- Ki [10]: 3970 nM
- inhibition [11]: 84%
- Ki (Histamine H4 receptor): 1700 nM
- Ki (D(1B) dopamine receptor): 1440 nM
- inhibition [12]: 81%
